The source of these data is US8906829B2, “Synergistic algicidal compositions including hydrazone derivatives and copper” (Dow AgroSciences LLC, priority 2010, dated 2014).

The subject of the assay is C. reinhardtii. Description: Effect of copper on activity of metal-hydrazone complexes: growth inhibition of C. reinhardtii in TAP Cu minus / TAP Cu plus medium (Example 13). Particulars: for % Inhn. Minus Copper Observed / % Inhn. Plus Copper Observed: C. reinhardtii growth inhibition; for % Inhn. Minus Copper Observed: TAP Cu minus medium; for % Inhn. Plus Copper Observed / % Inhn. Plus Copper Predicted: TAP Cu plus medium; for % Inhn. Plus Copper Predicted: calculated by Colby formula from minus-copper result and inhibition by copper chloride alone. It counts as cell-based, Chlamydomonas reinhardtii. Here is the method: In vitro toxicity assays against C. reinhardtii CC-1928 (wild type mt+137c green in dark subclone) obtained from the Chlamydomonas Resource Center at Duke University were conducted using TAP liquid growth medium described by Gorman and Levine Proc. Natl. Acad. Sci. USA 1965, 54, 1665-1669 except that CuSO4.5H2O, normally included as a component of Hutner's trace element stock solution (Hutner et al. Proc. Am. Philos. Soc. 1950, 94, 152-170), was omitted. The TAP medium lacking Cu (TAP Cu minus) was prepared by adding 400 mg NH4Cl, 10 mL of 100× Tris-Acetate (242 g Tris-base and 100 mL glacial acetic acid in 1000 mL milli Q water), and 8.3 mL of 120.5× phosphate buffer (14.34 g K2HPO4 and 7.26 g KH2PO4 in 1000 mL milli Q water) to milli Q water to make a total volume of 1 liter. The medium was treated with 0.5 g Chelex 100 resin (Bio-Rad Analytical grade, 50-100 mesh, sodium form, cat#142-2822) by stirring at room temperature for 1 hour. 900 mL were decanted and 45.9 mg of CaCl2.2H2O, 90 mg of MgSO4.7H2O and 0.9 mL Hutner's trace elements lacking CuSO4.5H2O were added and the solution was filter-sterilized. Medium containing copper (TAP Cu plus) was prepared by adding CuCl2.2H2O to the TAP Cu minus medium at 20 μM. Test compounds were dissolved in dimethylsulfoxide (DMSO) at 2 mg/mL then dilutions in TAP Cu minus and TAP Cu plus media were prepared in sterilized microcentrifuge tubes at 2 μg/mL. 100 μL aliquots of diluted compound were dispensed into flat-bottomed 96-well microtiter plates. C. reinhardtii was maintained under 12 h of light on TAP agar plates at 18° C. A loopful of cells was added to 50 mL of TAP Cu minus medium and the culture incubated with shaking at 200 rpm at 27° C. for 24 h. The culture (10 to 20 mL aliquot) was centrifuged in a bench centrifuge at 2000 rpm for 2 min. The resulting cell pellet was resuspended in 5 mL sterile milli Q water (which had been treated with Chelex 100 resin using 0.5 g resin per liter of water by stirring at room temperature for 1 h), and recentrifuged. The cells were resuspended in TAP Cu minus medium, and the suspension adjusted to 2×10^5 spores per mL. Microtiter plates containing compounds as described above were inoculated with 100 μL of this cell suspension and the plates incubated at 27° C. for 48 h before assessing algal growth by measuring light scattering in a NepheloStar plate-reader. Growth inhibition was determined by comparing growth in the presence of test compound with growth in control wells lacking test compound. The effect of copper on activity of metal-hydrazone complexes towards C. reinhardtii was evaluated by comparing their activity in TAP Cu minus and TAP Cu plus media as described in Example 10 (compound concentrations were selected which gave low inhibition in TAP Cu minus medium). Growth inhibition was determined by comparing growth in the presence of test compound with growth in control wells lacking test compound. Results for growth inhibition by test compounds in TAP Cu plus medium (% Inhn Plus Copper Observed) were compared with predicted values (% Inhn Plus Copper Predicted) that were calculated using the formula set forth by S. R. Colby in Weeds 1967, 15, 20-22 based on results obtained for the same compounds in TAP Cu minus medium (% Inhn Minus Copper Observed) and the inhibition attributed to copper chloride alone, as determined by comparing growth in TAP Cu minus and TAP Cu plus media without any test compound across experiments.

Setting [1] is: C. reinhardtii, test concn. 0.25 μg/mL.
The mark [2] stands for this setting: C. reinhardtii, test concn. 0.5 μg/mL.

Take `CC(=O)[O-].CC(=O)[O-].O=C(N/N=C/c1cc(Cl)cc(Cl)c1O)c1ccccc1.[Cu+2]` [Compound 72]: under “test concn. 0.25 μg/mL”, the “% Inhn. Minus Copper Observed” value came out at 79% and the “% Inhn. Plus Copper Observed” value is 83%. In addition, under setting [1], the “% Inhn. Plus Copper Predicted” value was 66%.

In the case of `CC(=O)[O-].CC(=O)[O-].O=C(N/N=C/c1cc(Cl)cc(Cl)c1O)c1ccccc1.O=C(N/N=C/c1cc(Cl)cc(Cl)c1O)c1ccccc1.[Cu+2]` [Compound 73], for the setting “test concn. 0.25 μg/mL”, the “% Inhn. Minus Copper Observed” value was determined as 23% and the “% Inhn. Plus Copper Observed” value was 87%. The “% Inhn. Plus Copper Predicted” value under setting [1] is 10%.

Regarding `O=C(N/N=C/c1cc(Cl)cc(Cl)c1O)c1ccccc1.O=C(N/N=C/c1cc(Cl)cc(Cl)c1O)c1ccccc1.O=S(=O)([O-])[O-].[Cu+2]` [Compound 74], for the setting “test concn. 0.25 μg/mL”, the “% Inhn. Minus Copper Observed” value is −9% and the “% Inhn. Plus Copper Observed” value came out at 82%. Further, the “% Inhn. Plus Copper Predicted” value under setting [1] is listed as −22%.

`O=C(N/N=C/c1cc(Cl)cc(Cl)c1O)c1ccccc1.[Cl-].[Cl-].[Cu+2]` [Compound 75]: where the note is “test concn. 0.25 μg/mL”, the “% Inhn. Minus Copper Observed” value was found to be 18% and the “% Inhn. Plus Copper Observed” value is recorded as 59%. Besides, the “% Inhn. Plus Copper Predicted” value under setting [1] is recorded as 5%.

Take `O=C(N/N=C/c1cc(Cl)cc(Cl)c1O)c1ccccc1.O=C(N/N=C/c1cc(Cl)cc(Cl)c1O)c1ccccc1.[Cl-].[Cl-].[Cu+2]` [Compound 76]: where the note is “test concn. 0.5 μg/mL”, the “% Inhn. Minus Copper Observed” value worked out at 3% and the “% Inhn. Plus Copper Observed” value is on record as 89%. The “% Inhn. Plus Copper Predicted” value under setting [2] is on record as −10%.

With `O=C(N/N=C/c1cc(Cl)cc(Cl)c1O)c1ccccc1.O=C(N/N=C/c1cc(Cl)cc(Cl)c1O)c1ccccc1.[Cl-].[Cl-].[Mn+2]` [Compound 77], where the note is “test concn. 0.5 μg/mL”, the “% Inhn. Minus Copper Observed” value is given as −5% and the “% Inhn. Plus Copper Observed” value came out at 93%. For the same molecule, the “% Inhn. Plus Copper Predicted” value under setting [2] is listed as −18%.

Take `O=C(NN=Cc1cc(Cl)cc(Cl)c1O)c1ccccc1.O=C(NN=Cc1cc(Cl)cc(Cl)c1O)c1ccccc1.[Cl-].[Cl-].[Zn+2]` [Compound 78]: where the note is “test concn. 0.5 μg/mL”, the “% Inhn. Minus Copper Observed” value is −9% and the “% Inhn. Plus Copper Observed” value came out at 87%. Moreover, the “% Inhn. Plus Copper Predicted” value under setting [2] was −22%.

As for `[Cl][Cu][Cl]` [CuCl2, Copper chloride, reference compound], the “% Inhn. attributed to copper chloride alone” value (C. reinhardtii, CuCl2 10 μM, growth in TAP Cu plus vs TAP Cu minus medium without test compound, across experiments) is −12.9%.
